The text below walks through data of US12071441B2, “10-(di(phenyl)methyl)-4-hydroxy-8,9,9A,10-tetrahydro-7H-pyrrolo[1′,2′:4,5]pyrazino[1,2-b]pyridazine-3,5-dione derivatives and related compounds as inhibitors of the orthomyxovirus replication for treating influenza” (Novartis AG, priority 2018, dated 2024).

Assay in all cases: microbe, parasite or virus in culture
Common to all, as to format: cell-based

Test [1] concerns influenza A virus minigenome (PB2, PB1, PA, NP; luciferase reporter) in 293T cells, RNP_Alaska. The note with it: HEK-293T, 48 h.
Test [2] has as its system influenza A virus minigenome (PB2, PB1, PA, NP; luciferase reporter) in 293T cells, RNP_CAL. The note with it: HEK-293T, 48 h, read-out: RNP_CAL_EC50.
Test [3] relates to influenza A virus minigenome (PB2, PB1, PA, NP; luciferase reporter) in 293T cells, RNP_Hubei. The note with it: HEK-293T, 48 h.

For `O=C1c2c(O)c(=O)cnn2[C@@H]([C@@H](c2ccc(F)cc2)c2ccc(OC(F)(F)F)cc2)[C@H]2CCCN12` [Example 5, (9aR,10S)-10-((R)-(4-fluorophenyl)(4-(trifluoromethoxy)phenyl)methyl)-4-hydroxy-8,9,9a,10-tetrahydro-7H-pyrrolo[1′,2′:4,5]pyrazino[1,2-b]pyridazine-3,5-dione], the EC50 in test [1], in test [2] and in test [3] was 100 to 1000 nM each time.

Regarding `COc1ccccc1[C@H](c1ccc(F)cc1)[C@H]1[C@H]2CCCN2C(=O)c2c(O)c(=O)cnn21` [Example 6, (9aR,10S)-10-((S)-(4-fluorophenyl)(2-methoxyphenyl)methyl)-4-hydroxy-8,9,9a,10-tetrahydro-7H-pyrrolo[1′,2′:4,5]pyrazino[1,2-b]pyridazine-3,5-dione], the EC50 in test [1], in test [2] and in test [3] was 100 to 1000 nM in each case.

In the case of `COc1ccc([C@H](c2ccc(F)cc2)[C@H]2[C@H]3CCCN3C(=O)c3c(O)c(=O)cnn32)cc1` [Example 7, (9aR,10S)-10-((R)-(4-fluorophenyl)(4-methoxyphenyl)methyl)-4-hydroxy-8,9,9a,10-tetrahydro-7H-pyrrolo[1′,2′:4,5]pyrazino[1,2-b]pyridazine-3,5-dione], the EC50 in test [1], in test [2] and in test [3] was 100 to 1000 nM throughout.

Consider `O=C1c2c(O)c(=O)cnn2[C@@H]([C@H](c2ccccc2F)c2cccc(F)c2F)[C@H]2CCCN12` [Example 8, (9aR,10S)-10-((R)-(2,3-difluorophenyl)(2-fluorophenyl)methyl)-4-hydroxy-8,9,9a,10-tetrahydro-7H-pyrrolo[1′,2′:4,5]pyrazino[1,2-b]pyridazine-3,5-dione], for which the EC50 in test [1], in test [2] and in test [3] was less than 100 nM each time.

As to `COc1cccc([C@H](c2ccc(F)cc2)[C@H]2[C@H]3CCCN3C(=O)c3c(O)c(=O)cnn32)c1` [Example 9, (9aR,10S)-10-((S)-(4-fluorophenyl)(3-methoxyphenyl)methyl)-4-hydroxy-8,9,9a,10-tetrahydro-7H-pyrrolo[1′,2′:4,5]pyrazino[1,2-b]pyridazine-3,5-dione], the EC50 in test [1] was 100 to 1000 nM; in test [2], 100 to 1000 nM; in test [3] it was less than 100 nM.

For the compound `Cc1cccc([C@H](c2ccc(F)cc2)[C@H]2[C@H]3CCCN3C(=O)c3c(O)c(=O)cnn32)c1` [Example 10, (9aR,10S)-10-((S)-(4-fluorophenyl)(m-tolyl)methyl)-4-hydroxy-8,9,9a,10-tetrahydro-7H-pyrrolo[1′,2′:4,5]pyrazino[1,2-b]pyridazine-3,5-dione], the EC50 in test [1], in test [2] and in test [3] was less than 100 nM each time.

On to `Cc1c([C@@H](c2cccc(F)c2)[C@H]2[C@H]3CCCN3C(=O)c3c(O)c(=O)cnn32)ccc(F)c1F` [Example 11, (9aR,10S)-10-((R)-(3,4-difluoro-2-methylphenyl)(3-fluorophenyl)methyl)-4-hydroxy-8,9,9a,10-tetrahydro-7H-pyrrolo[1′,2′:4,5]pyrazino[1,2-b]pyridazine-3,5-dione], for which the EC50 in test [1], in test [2] and in test [3] was less than 100 nM each time.

As to `Cc1cccc([C@@H](c2cccc(F)c2)[C@H]2[C@H]3CCCN3C(=O)c3c(O)c(=O)cnn32)c1F` [Example 12, (9aR,10S)-10-((R)-(2-fluoro-3-methylphenyl)(3-fluorophenyl)methyl)-4-hydroxy-8,9,9a,10-tetrahydro-7H-pyrrolo[1′,2′:4,5]pyrazino[1,2-b]pyridazine-3,5-dione], the EC50 in test [1], in test [2] and in test [3] was 100 to 1000 nM in each case.

For `O=C1c2c(O)c(=O)cnn2[C@@H](C(c2cccc(F)c2)c2cccc(F)c2)[C@H]2CC(F)(F)CN12` [Example 13, (9aR,10S)-10-(bis(3-fluorophenyl)methyl)-8,8-difluoro-4-hydroxy-8,9,9a,10-tetrahydro-7H-pyrrolo[1′,2′:4,5]pyrazino[1,2-b]pyridazine-3,5-dione], the EC50 in test [1] was not below 1000 nM; in test [2], not below 1000 nM; in test [3], 100 to 1000 nM.

As to `O=C1c2c(O)c(=O)cnn2[C@@H]([C@H](c2ccccc2)c2cccc(F)c2F)[C@@H]2COCCN12` [Example 14, (10aR,11S)-11-((R)-(2,3-difluorophenyl)(phenyl)methyl)-4-hydroxy-7,8,10a,11-tetrahydro-10H-pyridazino[1′,6′:4,5]pyrazino[2,1-c][1,4]oxazine-3,5-dione], the EC50 in test [1], in test [2] and in test [3] was less than 100 nM throughout.

For `Cc1c(F)cccc1[C@@H](c1cccc(F)c1)[C@H]1[C@H]2CCCN2C(=O)c2c(O)c(=O)cnn21` [Example 15, (9aR,10S)-10-((R)-(3-fluoro-2-methylphenyl)(3-fluorophenyl)methyl)-4-hydroxy-8,9,9a,10-tetrahydro-7H-pyrrolo[1′,2′:4,5]pyrazino[1,2-b]pyridazine-3,5-dione], the EC50 in test [1], in test [2] and in test [3] was less than 100 nM throughout.

On to `O=C1c2c(O)c(=O)cnn2[C@@H]([C@H](c2ccccc2)c2c(F)ccc(F)c2F)[C@H]2CCCN12` [Example 16, (9aR,10S)-4-hydroxy-10-((R)-phenyl(2,3,6-trifluorophenyl)methyl)-8,9,9a,10-tetrahydro-7H-pyrrolo[1′,2′:4,5]pyrazino[1,2-b]pyridazine-3,5-dione], for which the EC50 in test [1], in test [2] and in test [3] was less than 100 nM each time.

Turning to `Cc1ccccc1[C@H](c1cccc(C)c1F)[C@H]1[C@H]2CCCN2C(=O)c2c(O)c(=O)cnn21` [Example 17, (9aR,10S)-10-((R)-(2-fluoro-3-methylphenyl)(o-tolyl)methyl)-4-hydroxy-8,9,9a,10-tetrahydro-7H-pyrrolo[1′,2′:4,5]pyrazino[1,2-b]pyridazine-3,5-dione], the EC50 in test [1] is 100 to 1000 nM; in test [2], 100 to 1000 nM; in test [3], less than 100 nM.

Regarding `Cc1c(F)cccc1[C@@H](c1ccc(F)cc1)[C@H]1[C@H]2CCCN2C(=O)c2c(O)c(=O)cnn21` [Example 18, (9aR,10S)-10-((R)-(3-fluoro-2-methylphenyl)(4-fluorophenyl)methyl)-4-hydroxy-8,9,9a,10-tetrahydro-7H-pyrrolo[1′,2′:4,5]pyrazino[1,2-b]pyridazine-3,5-dione], the EC50 in test [1], in test [2] and in test [3] was less than 100 nM each time.

With `Cc1c(F)cccc1[C@@H](c1ccccc1)[C@H]1[C@H]2CCCN2C(=O)c2c(O)c(=O)cnn21` [Example 19, (9aR,10S)-10-((R)-(3-fluoro-2-methylphenyl)(phenyl)methyl)-4-(|1-oxidanyl)-8,9,9a,10-tetrahydro-7H-pyrrolo[1′,2′:4,5]pyrazino[1,2-b]pyridazine-3,5-dione], the EC50 in test [1], in test [2] and in test [3] was less than 100 nM throughout.

Consider `O=C1c2c(O)c(=O)cnn2[C@@H]([C@H](c2ccc(F)cc2)c2cccc(C(F)(F)F)c2)[C@H]2CCCN12` [Example 20, (9aR,10S)-10-((R)-(4-fluorophenyl)(3-(trifluoromethyl)phenyl)methyl)-4-hydroxy-8,9,9a,10-tetrahydro-7H-pyrrolo[1′,2′:4,5]pyrazino[1,2-b]pyridazine-3,5-dione], for which the EC50 in test [1], in test [2] and in test [3] was 100 to 1000 nM in each case.
